Measurements taken from PubChem BioAssay AID330 (DTP/NCI, 2004).
Values joined by “and” are separate entries in the source; they are usually repeats but may differ in a detail not shown here. Equal values may be shown once. Toxic doses and inconclusive results are not listed.

Test system: P388 leukemia ip, CD2F1 mice, survival T/C
Assay: NCI In Vivo Anticancer Drug Screen. Data for tumor model P388 Leukemia (intraperitoneal) in CD2F1 (CDF1) mice
Conditions: endpoint: median survival time, higher = longer survival
In short: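 Mice carrying the transplanted tumor received test compound or vehicle. Survival was recorded in each group, and the value is the treated-group measurement divided by that of the vehicle-treated control group.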

[1] = dose: 50.0 mg/kg/injection, schedule: Q01DX009 (ip), vehicle: saline
[2] = dose: 50.0 mg/kg/injection, schedule: Q01DX005 (ip), vehicle: Klucel (hydroxypropylcellulose) (HPC)
[3] = dose: 12.5 mg/kg/injection, schedule: Q01DX009 (ip), vehicle: saline
[4] = dose: 1.0 mg/kg/injection, schedule: Q01DX005 (ip), vehicle: saline + alcohol
[5] = dose: 2.0 mg/kg/injection, schedule: Q01DX005 (ip), vehicle: saline + alcohol
[6] = dose: 4.0 mg/kg/injection, schedule: Q01DX005 (ip), vehicle: saline + alcohol
[7] = dose: 8.0 mg/kg/injection, schedule: Q01DX005 (ip), vehicle: saline + alcohol

SMILES: CC[PH+](CC)CC.[Cl][Au]
- T/C (dose: 1.25 mg/kg/injection, schedule: Q01DX009 (ip), vehicle: Klucel (hydroxypropylcellulose) (HPC)): 100 % of control
- T/C (dose: 2.5 mg/kg/injection, schedule: Q01DX009 (ip), vehicle: Klucel (hydroxypropylcellulose) (HPC)): 99 % of control and 121 % of control
- T/C (dose: 5.0 mg/kg/injection, schedule: Q01DX009 (ip), vehicle: Klucel (hydroxypropylcellulose) (HPC)): 114 % of control (2×) and 123 % of control
- T/C (dose: 10.0 mg/kg/injection, schedule: Q01DX009 (ip), vehicle: Klucel (hydroxypropylcellulose) (HPC)): 124 % of control

SMILES: C=C1C(=O)O[C@H]2C[C@H]3O[C@H]3[C@@H]12
- T/C (dose: 1.56 mg/kg/injection, schedule: Q01DX009 (ip), vehicle: water): 100 % of control
- T/C (dose: 3.13 mg/kg/injection, schedule: Q01DX009 (ip), vehicle: water): 99 % of control
- T/C (dose: 6.25 mg/kg/injection, schedule: Q01DX009 (ip), vehicle: water): 98 % of control
- T/C (dose: 12.5 mg/kg/injection, schedule: Q01DX009 (ip), vehicle: water): 101 % of control
- T/C (dose: 25.0 mg/kg/injection, schedule: Q01DX009 (ip), vehicle: water): 107 % of control

SMILES: CC/C(=N/NS(=O)(=O)c1ccc(C)cc1)c1ccc(C)c(C)c1
- T/C [1]: 98 % of control
- T/C (dose: 100.0 mg/kg/injection, schedule: Q01DX009 (ip), vehicle: saline): 90 % of control
- T/C (dose: 200.0 mg/kg/injection, schedule: Q01DX009 (ip), vehicle: saline): 104 % of control

SMILES: COc1ccc(C)cc1C(CC(=O)O)CC(=O)N(CCCl)CCCl (stereo not drawn)
- T/C (dose: 100.0 mg/kg/injection, schedule: Q04DX003 (ip), vehicle: saline): 102 % of control
- T/C (dose: 200.0 mg/kg/injection, schedule: Q04DX003 (ip), vehicle: saline): 100 % of control
- T/C (dose: 400.0 mg/kg/injection, schedule: Q04DX003 (ip), vehicle: saline): 102 % of control

SMILES: CC1=CC(=O)C=C/C1=N/S(=O)(=O)c1ccccc1
- T/C (dose: 12.5 mg/kg/injection, schedule: Q01DX001 (ip), vehicle: saline with Tween-80): 100 % of control
- T/C (dose: 25.0 mg/kg/injection, schedule: Q01DX001 (ip), vehicle: saline with Tween-80): 90 % of control
- T/C (dose: 50.0 mg/kg/injection, schedule: Q01DX001 (ip), vehicle: saline with Tween-80): 100 % of control

SMILES: CCc1nc(N)nc(N)c1-c1ccc(NCCN)c(N)c1
- T/C (dose: 12.5 mg/kg/injection, schedule: Q01DX005 (ip), vehicle: Klucel (hydroxypropylcellulose) (HPC)): 104 % of control
- T/C (dose: 25.0 mg/kg/injection, schedule: Q01DX005 (ip), vehicle: Klucel (hydroxypropylcellulose) (HPC)): 101 % of control
- T/C [2]: 103 % of control and 107 % of control

SMILES: C(Oc1nc(OCC2CO2)nc(OCC2CO2)n1)C1CO1 (stereo not drawn)
- T/C [3]: 108 % of control
- T/C (dose: 25.0 mg/kg/injection, schedule: Q01DX009 (ip), vehicle: saline): 105 % of control
- T/C [1]: 101 % of control and 108 % of control

SMILES: N=[N+]=NC1C(O)C(CO)OC1n1cnc2c(N)ncnc21 (stereo not drawn)
- T/C (dose: 5.0 mg/kg/injection, schedule: Q03HX016 (ip), vehicle: Klucel (hydroxypropylcellulose) (HPC)): 118 % of control
- T/C (dose: 10.0 mg/kg/injection, schedule: Q03HX016 (ip), vehicle: Klucel (hydroxypropylcellulose) (HPC)): 110 % of control
- T/C (dose: 80.0 mg/kg/injection, schedule: Q03HX016 (ip), vehicle: Klucel (hydroxypropylcellulose) (HPC)): 153 % of control
- T/C (dose: 160.0 mg/kg/injection, schedule: Q03HX016 (ip), vehicle: Klucel (hydroxypropylcellulose) (HPC)): 64 % of control

SMILES: O=C1OC(O)C(Cl)=C1Cl (stereo not drawn)
- T/C (dose: 0.79 mg/kg/injection, schedule: Q01DX005 (ip), vehicle: saline with Tween-80): 111 % of control
- T/C (dose: 1.56 mg/kg/injection, schedule: Q01DX005 (ip), vehicle: saline with Tween-80): 112 % of control
- T/C (dose: 3.12 mg/kg/injection, schedule: Q01DX005 (ip), vehicle: saline with Tween-80): 114 % of control
- T/C (dose: 6.25 mg/kg/injection, schedule: Q01DX005 (ip), vehicle: saline with Tween-80): 120 % of control

SMILES: CCN1CC2(C)CCC(O)C34C2C(OC)C(O)(C13)C1(O)CC(OC)C2CC4(O)C1C2OC(=O)c1ccccc1 (stereo not drawn)
- T/C [4]: 102 % of control
- T/C [5]: 106 % of control
- T/C [6]: 108 % of control
- T/C [7]: 100 % of control

SMILES: CC(N)C1CCC2C3CC=C4CC(N)CCC4(C)C3CCC12C (stereo not drawn)
- T/C (dose: 10.0 mg/kg/injection, schedule: Q01DX009 (ip), vehicle: saline with Tween-80): 112 % of control
- T/C (dose: 20.0 mg/kg/injection, schedule: Q01DX009 (ip), vehicle: saline with Tween-80): 94 % of control

SMILES: CC[n+]1c2ccc(C)cc2nc2c3ccccc3c(N)cc21
- T/C (dose: 5.0 mg/kg/injection, schedule: Q01DX009 (ip), vehicle: saline): 110 % of control
- T/C (dose: 10.0 mg/kg/injection, schedule: Q01DX009 (ip), vehicle: saline): 106 % of control
- T/C (dose: 20.0 mg/kg/injection, schedule: Q01DX009 (ip), vehicle: saline): 99 % of control

SMILES: CCOC(=O)C1CC(=O)c2ccc(OC)c(OC)c2C1 (stereo not drawn)
- T/C (dose: 25.0 mg/kg/injection, schedule: Q01DX009 (ip), vehicle: other): 103 % of control
- T/C (dose: 50.0 mg/kg/injection, schedule: Q01DX009 (ip), vehicle: other): 100 % of control
- T/C (dose: 100.0 mg/kg/injection, schedule: Q01DX009 (ip), vehicle: other): 94 % of control
- T/C (dose: 200.0 mg/kg/injection, schedule: Q01DX009 (ip), vehicle: other): 94 % of control
- T/C (dose: 400.0 mg/kg/injection, schedule: Q01DX009 (ip), vehicle: other): 98 % of control

SMILES: CC(=O)OC1=C(C)[C@@H]2CC(=O)O[C@@H]3C[C@H]4[C@H](C)C[C@H](O)[C@H](O)[C@]4(C)[C@@H](C1=O)[C@@]32C
- T/C (dose: 0.5 mg/kg/injection, schedule: Q01DX005 (ip), vehicle: saline + alcohol): 101 % of control
- T/C [4]: 103 % of control
- T/C [5]: 115 % of control
- T/C [6]: 111 % of control
- T/C [7]: 115 % of control
- T/C (dose: 16.0 mg/kg/injection, schedule: Q01DX005 (ip), vehicle: saline + alcohol): 101 % of control
- T/C (dose: 32.0 mg/kg/injection, schedule: Q01DX005 (ip), vehicle: saline + alcohol): 94 % of control

SMILES: OC(/C=C\CC(O)(C(F)(F)F)C(F)(F)F)(C(F)(F)F)C(F)(F)F
- T/C (dose: 3.12 mg/kg/injection, schedule: Q01DX009 (ip), vehicle: saline): 100 % of control
- T/C (dose: 6.25 mg/kg/injection, schedule: Q01DX009 (ip), vehicle: saline): 106 % of control
- T/C (dose: 12.5 mg/kg/injection, schedule: Q01DX009 (ip), vehicle: saline with Tween-80): 91 % of control
- T/C [3]: 93 % of control

SMILES: COc1ccc(C2NC(=S)NC(C)=C2C(N)=O)cc1 (stereo not drawn)
- T/C (dose: 60.0 mg/kg/injection, schedule: Q01DX005 (ip), vehicle: Klucel (hydroxypropylcellulose) (HPC)): 101 % of control
- T/C (dose: 120.0 mg/kg/injection, schedule: Q01DX005 (ip), vehicle: Klucel (hydroxypropylcellulose) (HPC)): 95 % of control
- T/C (dose: 240.0 mg/kg/injection, schedule: Q01DX005 (ip), vehicle: Klucel (hydroxypropylcellulose) (HPC)): 96 % of control

SMILES: O=C1OCCOCCOCCOCCOCCOC(=O)c2cccc1n2
- T/C (dose: 100.0 mg/kg/injection, schedule: Q04DX003 (ip), vehicle: Klucel (hydroxypropylcellulose) (HPC)): 96 % of control
- T/C (dose: 200.0 mg/kg/injection, schedule: Q04DX003 (ip), vehicle: Klucel (hydroxypropylcellulose) (HPC)): 103 % of control
- T/C (dose: 400.0 mg/kg/injection, schedule: Q04DX003 (ip), vehicle: Klucel (hydroxypropylcellulose) (HPC)): 101 % of control

SMILES: COc1cccc(OC)c1SSCCN
- T/C (dose: 100.0 mg/kg/injection, schedule: Q04DX002 (ip), vehicle: suspension in saline): 107 % of control
- T/C (dose: 200.0 mg/kg/injection, schedule: Q04DX002 (ip), vehicle: suspension in saline): 111 % of control

SMILES: CC(=O)c1ccc(NN=NCCCl)cc1
- T/C (dose: 12.5 mg/kg/injection, schedule: Q01DX009 (ip), vehicle: distilled water + Tween-80): 98 % of control
- T/C (dose: 25.0 mg/kg/injection, schedule: Q01DX009 (ip), vehicle: distilled water + Tween-80): 100 % of control
- T/C (dose: 50.0 mg/kg/injection, schedule: Q01DX009 (ip), vehicle: distilled water + Tween-80): 104 % of control
- T/C (dose: 100.0 mg/kg/injection, schedule: Q01DX009 (ip), vehicle: distilled water + Tween-80): 104 % of control
- T/C (dose: 200.0 mg/kg/injection, schedule: Q01DX009 (ip), vehicle: distilled water + Tween-80): 107 % of control

SMILES: C=C1CC(C)(C)CN(Cc2ccc([N+](=O)[O-])cc2)C(C(=O)OC)=C1C(=O)OC
- T/C [2]: 87 % of control
- T/C (dose: 100.0 mg/kg/injection, schedule: Q01DX005 (ip), vehicle: Klucel (hydroxypropylcellulose) (HPC)): 95 % of control
- T/C (dose: 200.0 mg/kg/injection, schedule: Q01DX005 (ip), vehicle: Klucel (hydroxypropylcellulose) (HPC)): 94 % of control
